The target of test [1] is CDK2 (UniProt P24941). Kind of test: Enzyme Assay.
The target of test [2] is EGFR (UniProt P00533). The note with it: concentration not given here.

This note sets out measurements from the Kinase Knowledgebase extract (Sharma et al. 2016).

SMILES strings stand for the structures.

EGFR, sequence (P00533 whole entry, looked up): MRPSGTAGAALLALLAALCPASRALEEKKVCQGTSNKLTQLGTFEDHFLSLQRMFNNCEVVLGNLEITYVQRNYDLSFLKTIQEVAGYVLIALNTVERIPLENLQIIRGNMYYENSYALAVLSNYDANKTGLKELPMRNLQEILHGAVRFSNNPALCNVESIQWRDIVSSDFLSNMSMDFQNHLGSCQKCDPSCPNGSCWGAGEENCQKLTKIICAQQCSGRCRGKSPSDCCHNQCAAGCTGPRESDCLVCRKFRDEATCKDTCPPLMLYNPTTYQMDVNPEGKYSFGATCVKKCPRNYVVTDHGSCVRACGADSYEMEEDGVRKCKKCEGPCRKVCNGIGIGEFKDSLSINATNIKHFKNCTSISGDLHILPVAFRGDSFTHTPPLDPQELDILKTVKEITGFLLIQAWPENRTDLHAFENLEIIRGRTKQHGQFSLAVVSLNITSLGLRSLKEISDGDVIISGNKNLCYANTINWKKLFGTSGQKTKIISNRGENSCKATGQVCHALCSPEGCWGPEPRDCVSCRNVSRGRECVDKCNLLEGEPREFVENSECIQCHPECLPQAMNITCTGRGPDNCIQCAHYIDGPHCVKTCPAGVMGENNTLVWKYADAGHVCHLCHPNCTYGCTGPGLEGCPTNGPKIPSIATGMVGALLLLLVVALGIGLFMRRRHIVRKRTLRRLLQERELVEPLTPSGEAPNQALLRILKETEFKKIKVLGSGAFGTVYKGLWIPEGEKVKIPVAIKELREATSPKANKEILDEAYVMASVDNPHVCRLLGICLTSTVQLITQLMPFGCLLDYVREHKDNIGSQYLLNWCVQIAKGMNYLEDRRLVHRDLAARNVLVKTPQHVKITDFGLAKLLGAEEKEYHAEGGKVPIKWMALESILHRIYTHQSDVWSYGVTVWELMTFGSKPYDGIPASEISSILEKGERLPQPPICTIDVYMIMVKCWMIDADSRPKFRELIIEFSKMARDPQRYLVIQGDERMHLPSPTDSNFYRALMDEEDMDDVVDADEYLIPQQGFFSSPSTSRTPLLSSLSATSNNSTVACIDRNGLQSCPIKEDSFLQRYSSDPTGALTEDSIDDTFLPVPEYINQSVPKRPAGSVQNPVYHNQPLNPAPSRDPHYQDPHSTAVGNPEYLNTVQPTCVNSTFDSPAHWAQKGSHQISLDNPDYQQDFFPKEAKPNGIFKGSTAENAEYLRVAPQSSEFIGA

On to `COc1ccccc1-c1cc(Nc2ccc(NC(=O)C3(N)CCCCC3)cc2)ncn1`, for which the IC50 (in general, the concentration that gives 50% inhibition) in test [1] is 1 to 10 µM. Further, the inhibition (as a rule, how much of the control response was suppressed) in test [2] was above 80%.

On to `COc1ccccc1-c1cc(Nc2ccc(C(=O)NC3CCCNC3)cc2)ncn1` (stereo unspecified), for which, in test [1], the IC50 was 0.001 to 1 µM. In test [2], this compound came in with an inhibition above 80%. In the case of `COc1ccccc1-c1cc(Nc2ccc(NS(C)(=O)=O)cc2)ncn1`, the IC50 in test [1] lay in the range of 0.001 to 1 µM. In addition, the inhibition in test [2] was 50 to 80%. `COc1ccccc1-c1cc(Nc2ccc(NC(C)=O)cc2)ncn1`: in test [1], the IC50 lay within 0.001 to 1 µM. This compound also displayed an inhibition in test [2] of 50 to 80%. Compound `CCCS(=O)(=O)Nc1cc(Nc2cc(-c3cccc(N)c3)ncn2)ccc1C` gave an IC50 in test [1] of 0.001 to 1 µM. In test [2], the inhibition is above 80%. In test [1], `COc1ccccc1-c1cc(Nc2ccc(NC(=O)[C@@H]3CCCCN3)cc2)ncn1` gave an IC50 of 1 to 10 µM. In test [2], this compound came in with an inhibition above 80%. In turn, `COc1ccccc1-c1cc(Nc2ccc(N3CCCC3=O)cc2)ncn1` registered an IC50 in test [1] of 0.001 to 1 µM. In test [2], this compound displayed an inhibition of 50 to 80%. As to `CCN(CC)CCC(=O)Nc1ccc(Nc2cc(-c3ccccc3OC)ncn2)cc1`, the IC50 in test [1] fell in the range of 1 to 10 µM. Further, the inhibition in test [2] is above 80%. `Nc1ccc(C(=O)Nc2ccc(Nc3cc(-c4cccs4)ncn3)cc2)cc1` registered an IC50 in test [1] of 10 to 250 µM.

The compound `Nc1ccc(C(=O)Nc2ccc(Nc3cc(-c4ccncc4)ncn3)cc2)cc1` had an IC50 in test [1] of 10 to 250 µM. `CCc1ccccc1-c1cc(Nc2ccc(NC(=O)C(C)(C)C)cc2)ncn1` gave an IC50 in test [1] of 1 to 10 µM. On to `Nc1cccc(-c2cc(NCCc3ccncc3)ncn2)c1`, for which the IC50 in test [1] is 1 to 10 µM. `COc1ccc(-c2cc(Nc3ccc(NC(=O)c4ccc(N)cc4)cc3)ncn2)c(OC)c1` yielded an IC50 in test [1] of 0.001 to 1 µM. Consider `COc1ccccc1-c1cc(Nc2ccc(NC(=O)c3c[nH]c4ccccc34)cc2)ncn1`, for which the IC50 in test [1] lay within 1 to 10 µM.

For the compound `CC(C)(C)C(=O)Nc1ccc(Nc2cc(Cl)ncn2)cc1`, the IC50 in test [1] was in the range of 10 to 250 µM. In turn, `C=Cc1ccccc1-c1cc(Nc2ccc(NC(=O)C(C)(C)C)cc2)ncn1` returned an IC50 in test [1] of 10 to 250 µM.

`COc1ccccc1-c1cc(Nc2cccc(S(C)(=O)=O)c2)ncn1` had an IC50 in test [1] of 0.001 to 1 µM. The compound `Cc1ccc(Nc2cc(-c3cccc(CO)c3)ncn2)cc1NS(C)(=O)=O` showed an IC50 in test [1] of 1 to 10 µM. Take `Cc1ccc(Nc2cc(-c3cncnc3)ncn2)cc1NS(C)(=O)=O`: the IC50 in test [1] was 1 to 10 µM. As for `O=C(Nc1ccc(Nc2cc(-c3ccccc3Cl)ncn2)cc1)[C@@H]1CCCCN1`, the IC50 in test [1] fell in the range of 10 to 250 µM. Same read-out and setting: under `COc1ccc(-c2cc(Nc3ccc(C(=O)N[C@@H]4CCCC[C@H]4N)cc3)ncn2)cc1.COc1ccc(-c2cc(Nc3ccc(C(=O)N[C@H]4CCCC[C@@H]4N)cc3)ncn2)cc1` stands 1 to 10 µM; under `COC(=O)CN(c1ccc(Nc2cc(-c3ccc(O)cc3)ncn2)cc1)S(=O)(=O)c1ccc(C)cc1`, 0.001 to 1 µM; under `Nc1cccc(-c2cc(Nc3cccc(S(N)(=O)=O)c3)ncn2)c1`, 1 to 10 µM.

`COc1ccccc1-c1cc(Nc2ccc(C(=O)N[C@@H]3CCCC[C@@H]3N)cc2)ncn1.COc1ccccc1-c1cc(Nc2ccc(C(=O)N[C@H]3CCCC[C@H]3N)cc2)ncn1` came in with an IC50 in test [1] of 1 to 10 µM. In test [1], `COc1ccccc1-c1cc(Nc2ccc(C(=O)Nc3ccc(C(C)C)cc3)cc2)ncn1` gave an IC50 of 10 to 250 µM. Still for that read-out and setting: under `CC(C)Oc1ccccc1-c1cc(NCCc2ccncc2)ncn1` stands 1 to 10 µM; under `COc1ncccc1-c1cc(Nc2ccc(NC(=O)[C@@H]3CCCCN3)cc2)ncn1`, 1 to 10 µM. The same measure, in the same setting: under `COc1ccccc1-c1cc(Nc2ccc(C(=O)Nc3ccccc3)cc2)ncn1` stands 10 to 250 µM.

In the case of `Cc1ccc(S(=O)(=O)Nc2ccc(Nc3cc(-c4cccc(/C=C/C(=O)O)c4)ncn3)cc2)cc1`, in test [1], the IC50 lay within 10 to 250 µM. The compound `CC[C@H](C)[C@H](N)C(=O)Nc1ccc(Nc2cc(-c3ccccc3OC)ncn2)cc1` returned an IC50 in test [1] of 1 to 10 µM. On the same count and under the same terms, in the case of `COC(=O)CN(c1ccc(Nc2cc(-c3ccccc3OC)ncn2)cc1)S(=O)(=O)c1ccc(C)cc1` it was 1 to 10 µM; in that of `CCOc1ccccc1-c1cc(Nc2ccc(NC(=O)c3ccc(N)cc3)cc2)ncn1`, 1 to 10 µM. In turn, `COc1ccccc1-c1cc(Nc2ccc(NC(=O)C(N)c3ccc4ccccc4c3)cc2)ncn1` (stereo unspecified) gave an IC50 in test [1] of 1 to 10 µM. Take `CSc1ccccc1-c1cc(Nc2ccc(NC(=O)[C@@H]3CCCCN3)cc2)ncn1`: the IC50 in test [1] lay within 1 to 10 µM.

Take `Nc1ccc(C(=O)Nc2ccc(Nc3cc(-c4ccccc4O)ncn3)cc2)cc1`: in test [1], the IC50 was in the range of 10 to 250 µM. Compound `COc1ccccc1-c1cc(Nc2ccc(NC(=O)c3ccc4c(c3)OCO4)cc2)ncn1` had an IC50 in test [1] of 1 to 10 µM. The compound `CC(C)Oc1ccccc1-c1cc(Nc2ccc(NC(=O)[C@@H]3CCCCN3)cc2)ncn1` returned an IC50 in test [1] of 1 to 10 µM.

Regarding `COc1ccccc1-c1cc(Nc2ccc(C(=O)NC(C)(C)C)cc2)ncn1`, in test [1], the IC50 was in the range of 1 to 10 µM.
